“Also recorded” adds a separate entry of the source. Read-outs that look alike come from different tables or passages of the source.
What was measured:
[1] = biological target: T1, G protein-coupled receptor 119 (GPR-119) (Mesocricetus auratus, UniProt A0A1U8CD06); test: cAMP activity in HIT-T15 cells (cAMP dynamic kit, FRET); format: cell-based, hamster
T1 construct: hamster-derived β-cells containing G protein-coupled receptor 119 (GPR-119), HIT-T15 cells; host or cells: HIT-T15 (hamster pancreatic β-cells)
T1 sequence (A0A1U8CD06 1-334): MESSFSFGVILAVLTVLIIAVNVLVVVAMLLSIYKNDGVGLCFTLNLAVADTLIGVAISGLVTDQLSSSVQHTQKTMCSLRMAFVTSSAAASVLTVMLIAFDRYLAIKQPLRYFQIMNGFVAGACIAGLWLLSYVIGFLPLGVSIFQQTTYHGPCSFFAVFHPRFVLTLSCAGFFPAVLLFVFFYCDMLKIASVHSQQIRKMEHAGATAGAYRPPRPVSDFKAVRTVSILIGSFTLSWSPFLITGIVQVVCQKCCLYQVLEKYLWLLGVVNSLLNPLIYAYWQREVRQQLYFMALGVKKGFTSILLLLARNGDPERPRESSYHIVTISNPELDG
Procedure, shortened: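 Hamster HIT-T15 cells (60,000/well) were treated next day with compound at six concentrations, 0.0032–10 μM, for 1 h at 37° C. Cells were then lysed and cAMP measured by competitive HTRF immunoassay (D2-cAMP, cryptate anti-cAMP). Activity was derived as the change in FRET signal relative to DMSO.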

[2] = biological target: T2, CYP2D6 (Homo sapiens, UniProt P10635); test: CYP inhibition assay (Invitrogen P2862 kit); format: in vitro ADME; conditions: for inhibition at 1 h, 10 µM: human, CYP2D6 P450 BACULOSOMES (Invitrogen P2862 kit), probe Vivid CYP450 substrate, read-out: CYP inhibition (% at 10 μM) 2D6
T2 construct: purchased Invitrogen P2862
From the text: (§1) CYP enzymes play a major role in the metabolism of drugs. Depending on the inhibition activity of the CYP enzymes, the dose of the drugs and toxicity due to the co-administration of other drugs can be predicted. Therefore, we have measured the inhibitory activity for CYP3A4, CYP2C9, CYP1A2, CYP2D6 and CYP2C19 enzymes present in the body using the compounds of the present invention. Invitrogen P2862 kit was used for CYP2D6 inhibition assay, and BD GENTEST (459100, 459300, 459400, 459500) kits were used for CYP1A2, CYP2C9, CYP2C19 and CYP3A4 inhibition assay. In case of Invitrogen kit, the test materials were diluted in distilled water into 2.5× of the final test concentration.
P450 BACULOSOMES® reagent and regeneration device (100×) provided by the Invitrogen kit were diluted in the Vivid® reaction buffer (2×) into the appropriate concentration for the type of CYP450. After mixing 80 μl of the 2.5× test material and 100 μl of the mixture of the diluted P450 BACULOSOMES® reagent in U-bottom 96-well plate, the resulting mixture was pre-incubated for 20 minutes. Vivid® CYP450 substrate and NADP+ (100×) were diluted in the Vivid® CYP450 reaction buffer (2×) into the appropriate concentration for the types of CYP450 and the substrates. After completion of the pre-incubation, 20/l of the substrate-NADP (nicotinamide adenine dinucleotide phosphate) mixture was added, and then incubated for 1 hour. After completion of the reaction, the reactants were transferred to the white plates, and fluorescence values were measured using a micro-plate reader (Excitation and absorption wavelengths of CYP2D6 were 400 nm and 502 nm, respectively).
(§2) The measured values were converted into the inhibition percent of the test materials as compared to the value of the untreated control, and the results were summarized in Table 5.

[3] = biological target: T3, CYP2C9 (Homo sapiens, UniProt P11712); test: CYP inhibition assay (BD GENTEST kit); format: in vitro ADME; conditions: for inhibition at 1.5 h, 10 µM: human, CYP2C9 enzyme/substrate mixture of BD GENTEST kit, pH 7.4, 10 μM, read-out: CYP inhibition (% at 10 μM) 2C9
T3 construct: purchased BD GENTEST 459300
From the text: as §1
(§3) In case of BD GENTEST kit, the test materials were diluted in acetonitrile into 50× of the final test concentration. NADPH-cofactor mixture containing cofactor, G6PDH and control protein was prepared in distilled water as per manufacturer's instruction. 4 μl of 50× test materials and 96 μl of NADPH-cofactor mixture were mixed in U-bottom 96-well plate, and the resulting mixture were pre-incubated at 37° C. for 10 minutes. Predetermined concentrations of enzyme/substrate mixture were prepared in distilled water using buffer (0.5M potassium phosphate, pH 7.4) and each of CYP450 enzyme/substrate mixture provided in the kit for the types of CYP450. To the pre-incubated plate, 100 μl of enzyme/substrate mixture was added, and then incubated at 37° C. for 15 minutes (CYP1A2), 30 minutes (CYP3A4 and CYP2C19) or 1.5 hours (CYP2C9). After completion of the reaction, the reactants were transferred to the white plates, and fluorescent values were measured using a micro-plate reader (Excitation and absorption wavelengths of CYP1A2 and CYP2C19 were 410 nm and 460 nm, respectively; and excitation and absorption wavelengths of CYP2C9 and CYP3A4 were 409 nm and 530 nm, respectively).
as §2

[4] = biological target: T4, CYP1A2 (Homo sapiens, UniProt P05177); test: CYP inhibition assay (BD GENTEST kit); format: in vitro ADME; conditions: for inhibition at 15 min, 10 µM: human, CYP1A2 enzyme/substrate mixture of BD GENTEST kit, pH 7.4, 10 μM, read-out: CYP inhibition (% at 10 μM) 1A2
T4 construct: purchased BD GENTEST 459100
T4 sequence (P05177 1-516): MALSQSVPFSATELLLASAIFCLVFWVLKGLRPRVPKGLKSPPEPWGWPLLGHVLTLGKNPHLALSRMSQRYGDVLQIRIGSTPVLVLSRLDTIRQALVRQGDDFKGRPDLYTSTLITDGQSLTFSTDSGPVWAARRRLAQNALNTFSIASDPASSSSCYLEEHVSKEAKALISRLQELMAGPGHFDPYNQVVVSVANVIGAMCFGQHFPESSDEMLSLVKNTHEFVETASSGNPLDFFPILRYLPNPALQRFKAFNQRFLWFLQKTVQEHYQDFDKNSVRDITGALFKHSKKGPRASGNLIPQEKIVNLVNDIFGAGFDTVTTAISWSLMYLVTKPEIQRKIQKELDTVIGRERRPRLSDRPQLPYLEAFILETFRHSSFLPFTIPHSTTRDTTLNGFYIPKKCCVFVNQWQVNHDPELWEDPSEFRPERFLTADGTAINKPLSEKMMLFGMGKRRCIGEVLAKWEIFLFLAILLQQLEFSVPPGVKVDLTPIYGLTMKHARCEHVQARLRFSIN
From the text: as §1, §3, §2

[5] = biological target: T5, CYP2C19 (Homo sapiens, UniProt P33261); test: CYP inhibition assay (BD GENTEST kit); format: in vitro ADME; conditions: human, CYP2C19 enzyme/substrate mixture of BD GENTEST kit, pH 7.4, 10 μM; read-out: CYP inhibition (% at 10 μM) 2C19
T5 construct: purchased BD GENTEST 459400
From the text: as §1, §3, §2

[6] = biological target: T6, CYP3A4 (Homo sapiens, UniProt P08684); test: CYP inhibition assay (BD GENTEST kit); format: in vitro ADME; conditions: human, CYP3A4 enzyme/substrate mixture of BD GENTEST kit, pH 7.4, 10 μM; read-out: CYP inhibition (% at 10 μM) 3A4
T6 construct: purchased BD GENTEST 459500
From the text: as §1, §3, §2

[7] = test system: diet-induced obesity (DIO) rat model; test: OGTT at the end of the 4-week administration in DIO rat model; format: in vivo, Sprague Dawley (SD) rats; conditions: 300 mg/kg oral; glucose 2 g/kg 30 minutes later; after 4-week administration
Procedure: (§4) Specifically, male Sprague Dawley (SD) rats (approximately 4 weeks old) in a diet-induced obesity model were fed with a high-fat diet (Lab. Diet Co.) for approximately 10 weeks to induce high-fat diet-induced obesity (DIO). The rats undergoing the high-fat diet were randomly selected, and divided into groups (n=8) for respective administrations. The compounds of Comparative Examples 3 and 4 and Examples 48 and 119 were administered to the divided DIO rats each group for 4 weeks.
(§5) The weights of the DIO rats were measured twice a week during a period of administration of 4 weeks to record a change in the weights. At the end of the 4-week period of administration, a hypoglycemic effect was evaluated using an oral glucose tolerance test (OGTT), as follows.
Specifically, each of the compounds of Comparative Example 3 (300 mg/kg) and Examples 48 and 119 (10, 20, 50 mg/kg) was administered, and 2 g/kg of glucose was orally administered after 30 minutes of the administration. A blood glucose level was determined using an Accu-Chek Active Strip (Roche diagnostic Co.). In this case, the glucose level in blood collected via caudal venipuncture was measured at time points of −30, 0, 20, 40, 60, and 120 minutes after glucose administration. […]

[8] = test system: diet-induced obesity (DIO) rat model; test: Changes in weights in diet-induced obesity (DIO) rat model, 4-week administration; format: in vivo, Sprague Dawley (SD) rats; conditions: 300 mg/kg oral, 4 weeks
Procedure: To simultaneously evaluate both the weight-loss and hypoglycemic effects of the cyclohexene derivative according to the present invention, experiments were carried out, as follows.
as §4, §5

[9] = test system: male C57BL/6J (C57 black 6) rats in a high-fat diet model; test: Oral glucose tolerance test (OGTT), high-fat diet model; format: in vivo; conditions: 20 mg/kg oral, Table 3
Procedure: To evaluate in vivo effective effects of the cyclohexene derivatives according to the present invention, experiments were carried out, as follows.
Specifically, male C57BL/6J (C57 black 6) […] (8 to 10 weeks old) in a high-fat diet model were acclimated for at least 7 days, and only healthy rat populations were selected and subjected to an oral glucose tolerance test (OGTT). The rats were fasted for 12 to 15 hours, and then randomly divided into groups with five rats per group. Thereafter, each of the compounds of Examples 1, 14, 48, 69, 80, 118, 139, 147, 148, 169, 190, 199, 200, 204, 227, 277, 290, 291, 442, 443, and 461 to 466, and Comparative Examples 1 and 2 according to the present invention was administered to the rats at a dose of 20 mg/kg. In this case, a vehicle (0.5%, carboxymethyl cellulose (CMC)) was administered as an untreated group, and the dose of the compound administered together with the vehicle was orally administered at 10 ml/kg. After 30 minutes of administration, glucose (2 g/kg) was orally administered at a dose of 10 ml/kg. A blood glucose level was measured using an Accu-Chek Active Strip (Rosche Diagnostic Co.). In this case, the glucose level in blood collected via caudal venipuncture was measured at time points of −30, 0, 20, 40, 60, and 120 minutes after glucose administration. […]

T2 sequence (P10635 whole entry): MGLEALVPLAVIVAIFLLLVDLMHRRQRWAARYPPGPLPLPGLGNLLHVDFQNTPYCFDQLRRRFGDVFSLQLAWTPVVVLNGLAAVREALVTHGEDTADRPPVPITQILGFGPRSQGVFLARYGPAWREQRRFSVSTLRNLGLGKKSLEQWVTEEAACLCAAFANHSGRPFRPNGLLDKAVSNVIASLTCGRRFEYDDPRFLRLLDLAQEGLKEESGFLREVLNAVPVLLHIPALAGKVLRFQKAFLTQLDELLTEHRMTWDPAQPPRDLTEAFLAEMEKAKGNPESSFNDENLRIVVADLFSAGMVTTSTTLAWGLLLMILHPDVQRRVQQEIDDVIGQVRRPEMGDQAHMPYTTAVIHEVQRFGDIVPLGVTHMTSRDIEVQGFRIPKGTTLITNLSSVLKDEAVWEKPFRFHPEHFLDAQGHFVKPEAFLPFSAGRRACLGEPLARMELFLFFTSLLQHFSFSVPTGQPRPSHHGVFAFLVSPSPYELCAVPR
T6 sequence (P08684 whole entry): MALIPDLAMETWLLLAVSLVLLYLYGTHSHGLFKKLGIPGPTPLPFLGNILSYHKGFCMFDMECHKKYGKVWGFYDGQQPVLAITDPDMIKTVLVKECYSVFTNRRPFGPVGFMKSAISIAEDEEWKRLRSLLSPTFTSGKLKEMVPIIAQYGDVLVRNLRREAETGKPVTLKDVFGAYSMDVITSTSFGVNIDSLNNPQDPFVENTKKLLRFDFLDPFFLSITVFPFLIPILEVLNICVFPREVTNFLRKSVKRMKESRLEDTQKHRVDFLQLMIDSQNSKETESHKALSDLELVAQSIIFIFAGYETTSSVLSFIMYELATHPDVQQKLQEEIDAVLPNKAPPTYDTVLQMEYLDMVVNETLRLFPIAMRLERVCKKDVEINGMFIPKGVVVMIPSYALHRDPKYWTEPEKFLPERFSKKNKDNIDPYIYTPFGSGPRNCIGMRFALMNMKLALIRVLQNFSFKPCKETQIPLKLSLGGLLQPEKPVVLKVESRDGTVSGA
T3 sequence (P11712 whole entry): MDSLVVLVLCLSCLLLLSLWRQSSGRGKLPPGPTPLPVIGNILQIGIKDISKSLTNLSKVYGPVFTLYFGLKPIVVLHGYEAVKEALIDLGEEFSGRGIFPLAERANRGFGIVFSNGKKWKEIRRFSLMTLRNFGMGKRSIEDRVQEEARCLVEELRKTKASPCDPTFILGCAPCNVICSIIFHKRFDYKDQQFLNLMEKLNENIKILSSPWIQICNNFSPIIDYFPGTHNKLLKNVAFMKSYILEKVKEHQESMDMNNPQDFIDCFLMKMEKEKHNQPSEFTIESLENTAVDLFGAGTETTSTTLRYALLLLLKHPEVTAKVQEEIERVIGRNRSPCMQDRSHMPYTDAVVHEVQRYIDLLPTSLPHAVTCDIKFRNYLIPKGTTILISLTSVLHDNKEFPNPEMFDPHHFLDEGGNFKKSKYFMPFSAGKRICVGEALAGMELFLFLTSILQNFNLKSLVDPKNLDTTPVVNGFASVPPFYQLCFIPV
T5 sequence (P33261 whole entry): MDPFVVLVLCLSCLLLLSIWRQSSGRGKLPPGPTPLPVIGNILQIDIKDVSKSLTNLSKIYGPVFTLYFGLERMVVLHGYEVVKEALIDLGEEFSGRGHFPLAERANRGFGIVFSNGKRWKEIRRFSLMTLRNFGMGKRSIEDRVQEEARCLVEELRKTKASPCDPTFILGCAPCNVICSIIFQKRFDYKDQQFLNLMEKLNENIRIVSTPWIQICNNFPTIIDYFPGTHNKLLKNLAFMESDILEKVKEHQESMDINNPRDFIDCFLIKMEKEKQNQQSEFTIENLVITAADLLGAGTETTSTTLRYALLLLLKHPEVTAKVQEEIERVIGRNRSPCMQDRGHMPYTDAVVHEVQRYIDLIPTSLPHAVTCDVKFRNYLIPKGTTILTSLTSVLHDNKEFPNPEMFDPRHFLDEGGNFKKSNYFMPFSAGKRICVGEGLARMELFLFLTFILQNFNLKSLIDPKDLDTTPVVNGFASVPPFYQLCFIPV

Row | Compound | inhibition at 30 min, 10 µM [5] | inhibition at 30 min, 10 µM [6] | inhibition at 1 h, 10 µM [2] | inhibition at 1.5 h, 10 µM [3] | inhibition at 15 min, 10 µM [4] | hypoglycemic effect [9] | also measured
1 | CCc1cnc(N2CCC(COc3ccc(C4=CCC(C(=O)N5CCC[C@@H]5CO)CC4)cc3)CC2)nc1 (single isomer, unassigned; (+)) [Example 290] | 44.9% | 33.1% |  |  |  |  | EC50 ([1]; 1 hour at 37° C., six concentrations 0.0032 to 10 μM, read-out: EC50): 3.8 nM; EC50 ([1]; Table 2, read-out: EC50 value): ≤ 50 nM; CYP inhibition (% at 10 μM) 2D6 ([2]; 10 µM): 48.97%; CYP inhibition (% at 10 μM) 2C9 ([3]; 10 μM): 23.97%; CYP inhibition (% at 10 μM) 1A2 ([4]; 10 μM): 3.82%
2 | CCc1cnc(N2CCC(COc3ccc(C4=CCC(C(=O)N5CCC[C@@H]5CO)CC4)cc3)CC2)nc1 (stereo partly drawn) [Example 118, (4-(4-((1-(5-ethylpyrimidin-2-yl)piperidin-4-yl)methoxy)phenyl)cyclohex-3-enyl)((R)-2-(hydroxymethyl)pyrrolidin-1-yl)methanone] | 48.4% | 48.2% | 9.42% | 29.8% | 0% |  | 
3 | CN(C)C(=N)NC(=N)N [Comparative Example 3, Metformin] |  |  |  |  |  |  | hypoglycemic effect [7]: approximately 22%; changes in weights of rats (weight-loss effect) [8]: weight loss was observed for 2 weeks; also recorded: the weight rather increased after 2 weeks
4 | CC(C)c1noc(N2CCC(COc3ccc(-c4ccc(S(C)(=O)=O)cc4)nc3)CC2)n1 [Comparative Example 2, 2-(4-methanesulfonylphenyl)-5-({1-[3-(propan-2-yl)-1,2,4-oxadiazol-5-yl]piperidin-4-yl}methoxy)pyridine] |  |  |  |  |  | 15.3% | 
5 | CC(C)c1noc(C2CCN(c3ncnc(Nc4ccc(S(C)(=O)=O)cc4F)c3[N+](=O)[O-])CC2)n1 [Comparative Example 1, N-(2-fluoro-4-methylsulfonylphenyl)-5-nitro-6-[4-(3-propan-2-yl-1,2,4-oxadiazol-5-yl)piperidin-1-yl]pyrimidine-4-amine, reference compound] |  | 47.8% | 9.84% | 24.1% | 10.4% | 13.5% | 

— US10723699B2 (Hyundai Pharm Co., Ltd., priority 2015, dated 2020)
